Results taken from patent publication US9206219B2, “17-hydroxy-17-pentafluorethyl-estra-4,9(10)-dien-11-aryl derivatives, methods for the production thereof and the use thereof for treating diseases” (Bayer Intellectual Property GmbH, priority 2009, dated 2015).

Tests used:
[1] = molecular target: T1, human progesterone receptor A (Homo sapiens, UniProt P06401); assay: Progesterone receptor-antagonistic action in stably transfected SK-N-MC cells, MMTV-LUC reporter (PR-A); format: cell-based; conditions: antagonistic potency vs 0.1 nmol/l promegestone, 24 hours
T1 construct: expressed in transfected cells; host or cells: SK-N-MC human neuroblastoma cells, stably transfected with pRChPR-A-neo and pMMTV-LUC
T1 sequence (P06401 1-769 isoform P06401-2): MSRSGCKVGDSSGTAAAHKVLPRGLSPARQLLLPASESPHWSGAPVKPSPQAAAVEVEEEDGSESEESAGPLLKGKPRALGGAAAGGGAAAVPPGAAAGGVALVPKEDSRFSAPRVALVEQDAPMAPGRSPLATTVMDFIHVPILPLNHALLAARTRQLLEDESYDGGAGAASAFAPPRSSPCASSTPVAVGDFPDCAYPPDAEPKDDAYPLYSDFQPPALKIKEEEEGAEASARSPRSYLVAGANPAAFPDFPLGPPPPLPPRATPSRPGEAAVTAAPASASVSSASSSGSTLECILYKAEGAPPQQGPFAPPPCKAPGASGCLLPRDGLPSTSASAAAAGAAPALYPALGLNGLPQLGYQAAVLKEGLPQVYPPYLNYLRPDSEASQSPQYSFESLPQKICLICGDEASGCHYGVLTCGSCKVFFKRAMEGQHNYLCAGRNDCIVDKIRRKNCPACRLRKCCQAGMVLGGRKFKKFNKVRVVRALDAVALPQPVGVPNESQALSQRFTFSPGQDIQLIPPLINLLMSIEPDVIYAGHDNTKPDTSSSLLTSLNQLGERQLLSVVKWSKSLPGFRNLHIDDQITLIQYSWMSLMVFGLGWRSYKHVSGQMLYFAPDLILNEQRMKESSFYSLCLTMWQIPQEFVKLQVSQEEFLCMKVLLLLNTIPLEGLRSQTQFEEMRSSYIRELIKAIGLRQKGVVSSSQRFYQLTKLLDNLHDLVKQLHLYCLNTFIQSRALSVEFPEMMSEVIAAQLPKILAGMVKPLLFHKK
Protocol: (§1) Progesterone Receptor-Antagonistic Action in Stable Transfectants of Human Neuroblastoma Cells (SK-N-MC Cells) with the Human Progesterone A or Progesterone B Receptor and an MN-LUC Reporter Construct
(§2) SK-N-MC cells (human neuroblastoma cells) which have been stably transfected with plasmids expressing the human progesterone receptor B (pRChPR-B-neo) or the human progesterone receptor A (pRChPR-A-neo) and a reporter construct (pMMTV-LUC) were incubated for 24 hours either in the absence (negative control) or in the presence of ascending amounts of the particular test compound (0.01 nmol/l, 0.1 nmol/l, 1 nmol/l, 10 nmol/l, 100 nmol/l and […]), in order to determine the agonistic efficacy. As a positive control of the reporter gene induction, the cells were treated with the synthetic gestagen promegestone (0.01 nmol/l, 0.1 nmol/l, 1 nmol/l, 10 nmol/l, 100 nmol/l and […]). To determine the antagonistic activity, the cells were treated with 0.1 nmol/l promegestone and additionally with ascending amounts of the particular test compound (0.01 nmol/l, 0.1 nmol/l, 1 nmol/l, 10 nmol/l, 100 nmol/l and […]). The activity of the reporter gene LUC (LUC=luciferase) was determined in the cell lysates and measured as RLU (relative light units). All measurements are reported as % efficacy and as EC50 and IC50 concentrations.

[2] = molecular target: T2, human progesterone receptor B (Homo sapiens, UniProt P06401); assay: Progesterone receptor-antagonistic action in stably transfected SK-N-MC cells, MMTV-LUC reporter (PR-B); format: cell-based; conditions: antagonistic potency vs 0.1 nmol/l promegestone, 24 hours
T2 construct: expressed in transfected cells; host or cells: SK-N-MC human neuroblastoma cells, stably transfected with pRChPR-B-neo and pMMTV-LUC
T2 sequence (P06401 1-933): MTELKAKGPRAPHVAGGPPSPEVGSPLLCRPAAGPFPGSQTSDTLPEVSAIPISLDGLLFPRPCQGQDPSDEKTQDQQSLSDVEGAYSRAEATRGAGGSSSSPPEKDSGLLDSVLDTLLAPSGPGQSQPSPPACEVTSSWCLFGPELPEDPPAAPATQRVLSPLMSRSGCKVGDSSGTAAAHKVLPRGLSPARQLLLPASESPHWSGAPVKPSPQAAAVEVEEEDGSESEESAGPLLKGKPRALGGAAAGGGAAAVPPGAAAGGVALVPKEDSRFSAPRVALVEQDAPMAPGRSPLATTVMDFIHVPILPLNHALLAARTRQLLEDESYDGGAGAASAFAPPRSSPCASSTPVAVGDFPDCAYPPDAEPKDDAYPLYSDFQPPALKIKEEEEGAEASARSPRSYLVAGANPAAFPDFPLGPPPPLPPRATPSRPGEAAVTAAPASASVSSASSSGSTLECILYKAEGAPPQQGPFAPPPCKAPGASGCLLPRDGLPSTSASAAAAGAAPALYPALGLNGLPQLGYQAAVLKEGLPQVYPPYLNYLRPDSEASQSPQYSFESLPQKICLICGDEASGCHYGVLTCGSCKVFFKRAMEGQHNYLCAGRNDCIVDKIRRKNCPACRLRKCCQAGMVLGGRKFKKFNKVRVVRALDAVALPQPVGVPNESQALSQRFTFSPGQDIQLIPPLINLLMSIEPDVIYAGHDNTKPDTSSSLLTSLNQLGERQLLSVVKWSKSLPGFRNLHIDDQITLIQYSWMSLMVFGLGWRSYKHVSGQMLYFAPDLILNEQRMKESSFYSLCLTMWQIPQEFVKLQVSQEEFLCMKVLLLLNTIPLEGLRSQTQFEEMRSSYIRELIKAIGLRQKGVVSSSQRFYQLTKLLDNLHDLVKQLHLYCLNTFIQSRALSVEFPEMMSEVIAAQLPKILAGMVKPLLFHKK
Protocol: as §1, §2

Structure (SMILES)	IC50 [1] [nM]	IC50 [2] [nM]
C[C@]12C[C@H](c3ccc(CNC(=O)NCC(=O)O)cc3)C3=C4CCC(=O)C=C4CC[C@H]3[C@@H]1CC[C@@]2(O)C(F)(F)C(F)(F)F [Example 26, {3-[4-((8S,11R,13S,14S,17S)-17-hydroxy-13-methyl-3-oxo-17-pentafluoroethyl-2,3,6,7,8,11,12,13,14,15,16,17-dodecahydro-1H-cyclopenta[a]phenanthren-11-yl)benzyl]ureido}acetic acid]	24	64
C[C@]12C[C@H](c3ccc(CNC(=O)NCCC(=O)O)cc3)C3=C4CCC(=O)C=C4CC[C@H]3[C@@H]1CC[C@@]2(O)C(F)(F)C(F)(F)F [Example 27, 3-{3-[4-((8S,11R,13S,14S,17S)-17-hydroxy-13-methyl-3-oxo-17-pentafluoroethyl-2,3,6,7,8,11,12,13,14,15,16,17-dodecahydro-1H-cyclopenta[a]phenanthren-11-yl)benzyl]ureido}propionic acid]	43	29
C[C@]12C[C@H](c3ccc(-c4nnn[nH]4)cc3)C3=C4CCC(=O)C=C4CC[C@H]3[C@@H]1CC[C@@]2(O)C(F)(F)C(F)(F)F [Example 31, (8S,11R,13S,14S,17S)-17-hydroxy-13-methyl-17-pentafluoroethyl-11-[4-(1H-tetrazol-5-yl)phenyl]-1,2,6,7,8,11,12,13,14,15,16,17-dodecahydrocyclopenta[a]phenanthren-3-one]	138	137
C[C@]12C[C@H](c3ccc(CNC(=O)Nc4ccc(F)cc4)cc3)C3=C4CCC(=O)C=C4CC[C@H]3[C@@H]1CC[C@@]2(O)C(F)(F)C(F)(F)F [Example 33, 1-(4-fluorophenyl)-3-[4-((8S,11R,13S,14S,17S)-17-hydroxy-13-methyl-3-oxo-17-pentafluoroethyl-2,3,6,7,8,11,12,13,14,15,16,17-dodecahydro-1H-cyclopenta[a]phenanthren-11-yl)benzyl]urea]	0.8	0.8
C[C@]12C[C@H](c3ccc(CNC(=O)Nc4ccc(Cl)cc4)cc3)C3=C4CCC(=O)C=C4CC[C@H]3[C@@H]1CC[C@@]2(O)C(F)(F)C(F)(F)F [Example 34, 1-(4-chlorophenyl)-3-[4-((8S,11R,13S,14S,17S)-17-hydroxy-13-methyl-3-oxo-17-pentafluoroethyl-2,3,6,7,8,11,12,13,14,15,16,17-dodecahydro-1H-cyclopenta[a]phenanthren-11-yl)benzyl]urea]	0.7	0.8
CCOC(=O)c1ccc(NC(=O)NCc2ccc([C@H]3C[C@@]4(C)[C@@H](CC[C@@]4(O)C(F)(F)C(F)(F)F)[C@@H]4CCC5=CC(=O)CCC5=C43)cc2)cc1 [Example 36, 4-{3-[4-((8S,11R,13S,14S,17S)-17-hydroxy-13-methyl-3-oxo-17-pentafluoroethyl-2,3,6,7,8,11,12,13,14,15,16,17-dodecahydro-1H-cyclopenta[a]phenanthren-11-yl)benzyl]ureido}benzoic acid ethyl ester]	0.7	0.8
C[C@]12C[C@H](c3ccc(CNC(=O)Nc4ccc(C(=O)O)cc4)cc3)C3=C4CCC(=O)C=C4CC[C@H]3[C@@H]1CC[C@@]2(O)C(F)(F)C(F)(F)F [Example 38, 4-{3-[4-((8S,11R,13S,14S,17S)-17-hydroxy-13-methyl-3-oxo-17-pentafluoroethyl-2,3,6,7,8,11,12,13,14,15,16,17-dodecahydro-1H-cyclopenta[a]phenanthren-11-yl)benzyl]ureido}benzoic acid]	25	36

These reach a lower IC50 [1]. Values come first.

IC50 [1] [nM]	IC50 [2] [nM]	Structure (SMILES)
0.01	0.08	C[C@]12C[C@H](c3ccc(CN=[N+]=[N-])cc3)C3=C4CCC(=O)C=C4CC[C@H]3[C@@H]1CC[C@@]2(O)C(F)(F)C(F)(F)F [Example 28, (8S,11R,13S,14S,17S)-11-(4-azidomethylphenyl)-17-hydroxy-13-methyl-17-pentafluoroethyl-1,2,6,7,8,11,12,13,14,15,16,17-dodecahydrocyclopenta[a]phenanthren-3-one]
0.1	0.2	COc1ccc(NC(=O)NCc2ccc([C@H]3C[C@@]4(C)[C@@H](CC[C@@]4(O)C(F)(F)C(F)(F)F)[C@@H]4CCC5=CC(=O)CCC5=C43)cc2)cc1 [Example 32, 1-[4-((8S,11R,13S,14S,17S)-17-hydroxy-13-methyl-3-oxo-17-pentafluoroethyl-2,3,6,7,8,11,12,13,14,15,16,17-dodecahydro-1H-cyclopenta[a]phenanthren-11-yl)benzyl]-3-(4-methoxyphenyl)urea]
0.3	0.6	CC(C)(C)c1ccc(NC(=O)NCc2ccc([C@H]3C[C@@]4(C)[C@@H](CC[C@@]4(O)C(F)(F)C(F)(F)F)[C@@H]4CCC5=CC(=O)CCC5=C43)cc2)cc1 [Example 35, 1-(4-tert-butylphenyl)-3-[4-((8S,11R,13S,14S,17S)-17-hydroxy-13-methyl-3-oxo-17-pentafluoroethyl-2,3,6,7,8,11,12,13,14,15,16,17-dodecahydro-1H-cyclopenta[a]phenanthren-11-yl)benzyl]urea]
0.1	0.2	C[C@]12C[C@H](c3ccc(CNC(=O)Nc4ccc(N5CCCCC5)cc4)cc3)C3=C4CCC(=O)C=C4CC[C@H]3[C@@H]1CC[C@@]2(O)C(F)(F)C(F)(F)F [Example 39, 1-[4-((8S,11R,13S,14S,17S)-17-hydroxy-13-methyl-3-oxo-17-pentafluoroethyl-2,3,6,7,8,11,12,13,14,15,16,17-dodecahydro-1H-cyclopenta[a]phenanthren-11-yl)benzyl]-3-(4-piperidin-1-ylphenyl)urea]
0.01	0.05	CC1(c2ccc([C@H]3C[C@@]4(C)[C@@H](CC[C@@]4(O)C(F)(F)C(F)(F)F)[C@@H]4CCC5=CC(=O)CCC5=C43)cc2)COC1 [Example 40, (8S,11R,13S,14S,17S)-17-hydroxy-13-methyl-11-[4-(3-methyloxetan-3-yl)phenyl]-17-pentafluoroethyl-1,2,6,7,8,11,12,13,14,15,16,17-dodecahydrocyclopenta[a]phenanthren-3-one]
0.1	0.2	CC(C)NC(=O)OCc1ccc([C@H]2C[C@@]3(C)[C@@H](CC[C@@]3(O)C(F)(F)C(F)(F)F)[C@@H]3CCC4=CC(=O)CCC4=C32)cc1 [Example 42, isopropylcarbamic acid 4-((8S,11R,13S,14S,17S)-17-hydroxy-13-methyl-3-oxo-17-pentafluoroethyl-2,3,6,7,8,11,12,13,14,15,16,17-dodecahydro-1H-cyclopenta[a]phenanthren-11-yl)benzyl ester]
